The target of experiment [1] is T1, glutathione-S-transferase (GST) tagged LXRalpha LBD (ligand binding domain) (Homo sapiens, UniProt Q13133).
T1 construct: purchased Invitrogen pv4655
T1 sequence (Q13133 209-447 limits assumed): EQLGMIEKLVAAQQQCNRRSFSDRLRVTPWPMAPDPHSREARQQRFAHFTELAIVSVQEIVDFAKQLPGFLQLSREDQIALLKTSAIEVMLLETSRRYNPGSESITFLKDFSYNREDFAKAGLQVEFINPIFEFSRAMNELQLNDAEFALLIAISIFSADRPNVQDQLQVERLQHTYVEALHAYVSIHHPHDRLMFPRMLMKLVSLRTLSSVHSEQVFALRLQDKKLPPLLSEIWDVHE
The experiment in a line: LanthaScreen TR-FRET Liver X Receptor Coactivator Assay, LXR alpha-LBD. In kind it is biochemical. The conditions noted are these: for Emax: efficacy in relation to reference dual agonist T1317, read-out: LXR alpha activity at max dose (%) (Emax); for EC50 / LXR alpha IP (nM): potency (Inflection Point) of co-activator recruitment, TR-FRET; for EC50: read-out: LXR alpha IP. The protocol: (§1) While running the LanthaScreen™ TR-FRET Liver X Receptor Coactivator Assay, LXR alpha-LBD or LXR beta-LBD was added to ligand test compounds followed by addition of a mixture of a fluorescein-labelled coactivator peptide and terbium-conjugated anti-GST antibody. After an incubation period at room temperature, TR-FRET (time-resolved fluorescence resonance energy transfer) was measured using a filter-based instrument capable of TR-FRET, e.g. PerkinElmer Envision.
For orientation: Time-resolved FRET reads energy transfer from a long-lived donor to a nearby acceptor.

The target of experiment [2] is T2, glutathione-S-transferase (GST) tagged LXRbeta LBD (ligand binding domain) (Homo sapiens, UniProt P55055).
T2 construct: purchased Invitrogen pv4658.pps
T2 sequence (P55055 222-460 limits assumed): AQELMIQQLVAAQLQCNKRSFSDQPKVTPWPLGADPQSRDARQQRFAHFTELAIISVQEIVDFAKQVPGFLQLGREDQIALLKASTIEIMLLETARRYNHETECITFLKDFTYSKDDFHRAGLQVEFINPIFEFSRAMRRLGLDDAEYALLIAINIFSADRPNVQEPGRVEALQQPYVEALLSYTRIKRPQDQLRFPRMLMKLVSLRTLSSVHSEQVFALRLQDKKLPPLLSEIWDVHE
Nature of the experiment: LanthaScreen TR-FRET Liver X Receptor Coactivator Assay, LXR beta-LBD. The conditions noted are these: for Emax: efficacy in relation to reference dual agonist T1317, read-out: LXR beta activity at max dose (%) (Emax); for EC50: potency (Inflection Point) of co-activator recruitment, TR-FRET, read-out: LXR beta IP. The experiment is classed as biochemical. The method, then:
as §1

Structures are written as SMILES.

A word on the Emax: it is the size of the effect at its maximum, as opposed to the concentration needed. Take `Cc1nc(CCN(C)C(=O)c2ccc(-c3cnc(N4CCN(C(=O)OC(C)(C)C)CC4)c(C#N)c3)cc2Cl)no1` [Example 5-28, tert-butyl 4-[5-(3-chloro-4-{methyl[2-(5-methyl-1,2,4-oxadiazol-3-yl)ethyl]carbamoyl}phenyl)-3-cyanopyridin-2-yl]piperazine-1-carboxylate]: in experiment [1], the Emax turned out to be 71% and the EC50 was 3710 nM. Also, in experiment [2], the Emax came out at 84% and the EC50 was 164 nM.
In the same order, the values of `CCN(C)C(=O)c1ccc(-c2cnc(N3CCN(C(=O)OC(C)(C)C)CC3)c(C#N)c2)cc1Cl` [Example 5-5, tert-butyl 4-(5-{3-chloro-4-[ethyl(methyl)carbamoyl]phenyl}-3-cyanopyridin-2-yl)piperazine-1-carboxylate] are 54%, 2680 nM, 76% and 88 nM.
In the same order, the values of `CN(C)C(=O)c1ccc(-c2cnc(N3CCN(C(=O)OCc4c(Cl)cccc4Cl)CC3)c(C#N)c2)cc1Cl` [Example 3-1, 2,6-dichlorobenzyl4-{5-[3-chloro-4-(dimethylcarbamoyl)phenyl]-3-cyanopyridin-2-yl}piperazine-1-carboxylate] are 60%, 2310 nM, 119% and 12 nM.
For `Cc1nonc1CC(=O)N1CCN(c2ncc(-c3ccc(C(=O)N(C)C)c(Cl)c3)cc2C#N)CC1` [Example 2-10, 2-chloro-4-(5-cyano-6-{4-[(4-methyl-1,2,5-oxadiazol-3-yl)acetyl]piperazin-1-yl}pyridin-3-yl)-N,N-dimethylbenzamide], in experiment [1], the Emax is 10% and the “LXR alpha IP (nM)” value is recorded as “No IP”. Further, in experiment [2], the Emax stood at 63% and the EC50 came out at 2330 nM.
With `CC(C)(C)OC(=O)N1CCN(c2ncc(-c3ccc(C(=O)N(CCO)CCO)c(Cl)c3)cc2C#N)CC1` [Example 5-19, tert-butyl 4-(5-{4-[bis(2-hydroxyethyl)carbamoyl]-3-chlorophenyl}-3-cyanopyridin-2-yl)piperazine-1-carboxylate], in experiment [1], the Emax is 68% and the EC50 was 2980 nM. In experiment [2], the Emax is 93% and the EC50 is 102 nM.
In the same order, the values of `CN(C)C(=O)c1ccc(-c2cnc(N3CCN(C(=O)OC(C)(C)C)CC3)c(Cl)c2)cc1Cl` [Example 9-1, tert-butyl 4-(3-chloro-5-(3-chloro-4-(dimethylcarbamoyl)phenyl)pyridin-2-yl)piperazine-1-carboxylate] are 48%, 1350 nM, 61% and 55 nM.
The corresponding values for `CN(C)C(=O)c1ccc(-c2cnc(N3CCN(S(=O)(=O)C4CC4)CC3)c(C#N)c2)cc1Cl` [Example 1-2, 2-chloro-4-{5-cyano-6-[4-(cyclopropylsulfonyl)piperazin-1-yl]pyridin-3-yl}-N,N-dimethylbenzamide] are 37%, 22500 nM, 68% and 543 nM.
For the compound `CN(CCn1cncn1)C(=O)c1ccc(-c2cnc(N3CCN(C(=O)[C@](O)(c4ccccc4)C(F)(F)F)CC3)c(C#N)c2)cc1Cl` [Example 6-1, 2-chloro-4-(5-cyano-6-{4-[(2R)-3,3,3-trifluoro-2-hydroxy-2-phenylpropanoyl]piperazin-1-yl}pyridin-3-yl)-N-methyl-N-[2-(1H-1,2,4-triazol-yl)ethyl]benzamide], in experiment [1], the Emax worked out at 33% and the EC50 was 1170 nM. Besides, in experiment [2], the Emax was 101% and the EC50 was found to be 2 nM.
As for `CN(C)C(=O)c1ccc(-c2cnc(N3CCN(C(=O)C(O)(c4ccccc4Cl)C(F)(F)F)CC3)c(C#N)c2)cc1Cl` (centres unmarked) [Example 2-38, 2-chloro-4-(6-{4-[2-(2-chlorophenyl)-3,3,3-trifluoro-2-hydroxypropanoyl]piperazin-1-yl}-5-cyanopyridin-3-yl)-N,N-dimethylbenzamide], in experiment [1], the Emax turned out to be 18% and the EC50 worked out at 292 nM. For the same compound, in experiment [2], the Emax worked out at 69% and the EC50 amounted to 13 nM.
Regarding `CC(C)C(O)(C(=O)N1CCN(c2ncc(-c3cc(Cl)c(C(=O)N(C)C)c(Cl)c3)cc2C#N)CC1)C(F)(F)F` (single isomer, unassigned) [Example 7-5, 2,6-dichloro-4-(5-cyano-6-{4-[2-hydroxy-3-methyl-2-(trifluoromethyl)butanoyl]piperazin-1-yl}pyridin-3-yl)-N,N-dimethylbenzamide], in experiment [1], the Emax amounted to 41% and the EC50 was 929 nM. For the same compound, in experiment [2], the Emax was 93% and the EC50 amounted to 12 nM.
As to `CN(C)C(=O)c1ccc(-c2cnc(N3CCN(C(=O)C(O)(c4ccccc4)C(F)(F)F)CC3)c(C#N)c2)cc1Cl` (centres unmarked) [Example 2-32, 2-chloro-4-{5-cyano-6-[4-(3,3,3-trifluoro-2-hydroxy-2-phenylpropanoyl)piperazin-1-yl]pyridin-3-yl}-N,N-dimethylbenzamide], the Emax in experiment [1] came to 37%; in experiment [2], 98%. Besides, the results for the EC50 in experiment [1] and in experiment [2] were 3050 nM and 4 nM, respectively.
For the compound `CN(C)C(=O)c1ccc(-c2ccc(N3CCN(C(=O)c4c(F)cccc4F)CC3)cc2)cc1Cl` [Example 4-16, 3-chloro-4′-{4-[(2,6-difluorophenyl)carbonyl]piperazin-1-yl}-N,N-dimethylbiphenyl-4-carboxamide], in experiment [1], the Emax came out at 19% and the “LXR alpha IP (nM)” value was “No IP”. In experiment [2], the Emax came to 77% and the EC50 came to 4160 nM.
For the compound `CC(C)S(=O)(=O)N1CCN(c2ncc(-c3ccc(C(=O)N(C)C)c(Cl)c3)cc2C#N)CC1` [Example 1-15, 2-chloro-4-(5-cyano-6-{4-[(1-methylethyl)sulfonyl]piperazin-1-yl}pyridin-3-yl)-N,N-dimethylbenzamide], in experiment [1], the Emax was determined as 43% and the EC50 is 19500 nM. Besides, in experiment [2], the Emax came to 86% and the EC50 worked out at 437 nM.
In the same order, the values of `CN(C)C(=O)c1ccc(-c2cnc(N3CCN(C(=O)[C@](C)(O)C(F)(F)F)CC3)c(C#N)c2)cc1Cl` [Example 2-16, 2-chloro-4-(5-cyano-6-{4-[(2S)-3,3,3-trifluoro-2-hydroxy-2-methylpropanoyl]piperazin-1-yl}pyridin-3-yl)-N,N-dimethylbenzamide] are 58%, 13000 nM, 94% and 242 nM.
In the same order, the values of `CN(C)C(=O)c1ccc(-c2ccc(N3CCN(C(=O)c4c(F)cccc4Cl)CC3)cc2)cc1Cl` [Example 4-19, 3-chloro-4′-{4-[(2-chloro-6-fluorophenyl)carbonyl]piperazin-1-yl}-N,N-dimethylbiphenyl-4-carboxamide] are 20%, 16900 nM, 93% and 1270 nM.
Take `CN(C)C(=O)c1ccc(-c2ccc(N3CCN(C(=O)c4c(F)cccc4F)CC3)c(Cl)c2)cc1Cl` [Example 4-1, 3,3′-dichloro-4′-{4-[(2,6-difluorophenyl)carbonyl]piperazin-1-yl}-N,N-dimethylbiphenyl-4-carboxamide]: in experiment [2], the Emax came out at 90% and the EC50 was 833 nM.

The record behind these values is patent US10239849B2 (Merck Sharp & Dohme Corp., priority 2015, dated 2019).
